Assays:
Experiment in all cases: KINOMEscan competition binding
Conditions in all cases: compound 10.0 µM
ACVR2A (human) = ACVR2A (human) (UniProt P27037)
ADCK4 (human) = ADCK4 (human) (UniProt Q96D53)
AURKA (human) = AURKA (human) (UniProt O14965)
BTK (human) = BTK (human) (UniProt Q06187)
CAMK2B (human) = CAMK2B (human) (UniProt Q13554)
CAMK2G (human) = CAMK2G (human) (UniProt Q13555)
CAMK4 (human) = CAMK4 (human) (UniProt Q16566)
CDK15 (human) = CDK15 (human) (UniProt Q96Q40)
CDK4 CCND3 (human) = CDK4 CCND3 (human) (UniProt P11802+P30281)
CDKL3 (human) = CDKL3 (human) (UniProt Q8IVW4)
DAPK3 (human) = DAPK3 (human) (UniProt O43293)
DCLK1 (human) = DCLK1 (human) (UniProt O15075)
Sequence of DCLK1 (human) (O15075 whole entry, looked up): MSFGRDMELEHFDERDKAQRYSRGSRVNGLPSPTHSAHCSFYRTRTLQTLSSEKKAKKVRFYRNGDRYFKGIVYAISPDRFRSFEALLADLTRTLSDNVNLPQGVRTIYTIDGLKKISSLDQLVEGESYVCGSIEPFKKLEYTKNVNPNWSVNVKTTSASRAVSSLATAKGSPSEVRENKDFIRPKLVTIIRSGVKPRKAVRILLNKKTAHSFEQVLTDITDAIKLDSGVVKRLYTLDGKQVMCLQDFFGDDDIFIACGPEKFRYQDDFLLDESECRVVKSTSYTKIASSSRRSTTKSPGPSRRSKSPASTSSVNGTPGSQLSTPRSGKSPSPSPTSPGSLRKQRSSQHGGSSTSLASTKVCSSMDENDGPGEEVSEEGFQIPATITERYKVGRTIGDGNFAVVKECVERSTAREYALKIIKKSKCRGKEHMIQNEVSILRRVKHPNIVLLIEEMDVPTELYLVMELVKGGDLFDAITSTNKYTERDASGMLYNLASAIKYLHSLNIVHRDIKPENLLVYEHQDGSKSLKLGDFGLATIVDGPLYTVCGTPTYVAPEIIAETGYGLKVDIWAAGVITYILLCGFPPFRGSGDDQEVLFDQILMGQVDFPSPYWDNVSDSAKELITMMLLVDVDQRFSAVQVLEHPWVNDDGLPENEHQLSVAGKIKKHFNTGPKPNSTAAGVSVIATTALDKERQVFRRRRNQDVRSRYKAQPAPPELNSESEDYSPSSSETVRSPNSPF

EIF2AK2 (human) = EIF2AK2 (human) (UniProt P19525)
EPHA1 (human) = EPHA1 (human) (UniProt P21709)
FES (human) = FES (human) (UniProt P07332)
FGFR2 (human) = FGFR2 (human) (UniProt P21802)
GAK (human) = GAK (human) (UniProt O14976)
GRK7 (human) = GRK7 (human) (UniProt Q8WTQ7)
GSK3A (human) = GSK3A (human) (UniProt P49840)
[1] = target: JAK2 JH1 catalytic (human) (UniProt O60674)
Sequence of JAK2 JH1 catalytic (human) (O60674 whole entry, looked up): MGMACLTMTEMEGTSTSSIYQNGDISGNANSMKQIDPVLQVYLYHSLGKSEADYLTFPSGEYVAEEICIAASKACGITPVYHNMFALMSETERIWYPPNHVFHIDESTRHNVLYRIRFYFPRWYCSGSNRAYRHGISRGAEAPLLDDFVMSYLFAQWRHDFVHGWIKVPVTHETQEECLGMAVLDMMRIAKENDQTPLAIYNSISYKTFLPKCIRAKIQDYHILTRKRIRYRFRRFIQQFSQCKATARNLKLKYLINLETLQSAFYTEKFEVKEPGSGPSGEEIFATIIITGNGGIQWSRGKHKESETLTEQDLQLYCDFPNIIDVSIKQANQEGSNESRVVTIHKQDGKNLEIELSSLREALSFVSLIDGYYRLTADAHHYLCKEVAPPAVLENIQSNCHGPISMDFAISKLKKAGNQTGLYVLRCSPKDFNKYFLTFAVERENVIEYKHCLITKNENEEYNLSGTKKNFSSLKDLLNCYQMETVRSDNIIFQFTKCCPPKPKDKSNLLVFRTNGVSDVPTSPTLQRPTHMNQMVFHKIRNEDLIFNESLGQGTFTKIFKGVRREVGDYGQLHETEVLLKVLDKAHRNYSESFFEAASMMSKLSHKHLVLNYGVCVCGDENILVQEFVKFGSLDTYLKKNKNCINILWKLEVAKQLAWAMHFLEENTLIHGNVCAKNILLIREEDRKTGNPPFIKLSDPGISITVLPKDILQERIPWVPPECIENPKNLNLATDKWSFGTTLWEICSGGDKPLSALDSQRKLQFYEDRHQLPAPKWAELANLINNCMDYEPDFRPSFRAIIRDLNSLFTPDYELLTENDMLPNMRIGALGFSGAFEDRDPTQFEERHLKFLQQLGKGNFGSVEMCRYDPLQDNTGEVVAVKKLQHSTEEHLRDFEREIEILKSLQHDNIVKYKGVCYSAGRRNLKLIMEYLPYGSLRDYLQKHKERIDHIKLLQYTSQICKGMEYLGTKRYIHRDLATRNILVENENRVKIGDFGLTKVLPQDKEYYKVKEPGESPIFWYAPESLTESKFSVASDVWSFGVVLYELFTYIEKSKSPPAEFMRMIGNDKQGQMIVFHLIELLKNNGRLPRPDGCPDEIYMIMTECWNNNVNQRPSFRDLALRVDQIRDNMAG

KIT (human) = KIT (human) (UniProt P10721)
Sequence of KIT (human) (P10721 whole entry, looked up): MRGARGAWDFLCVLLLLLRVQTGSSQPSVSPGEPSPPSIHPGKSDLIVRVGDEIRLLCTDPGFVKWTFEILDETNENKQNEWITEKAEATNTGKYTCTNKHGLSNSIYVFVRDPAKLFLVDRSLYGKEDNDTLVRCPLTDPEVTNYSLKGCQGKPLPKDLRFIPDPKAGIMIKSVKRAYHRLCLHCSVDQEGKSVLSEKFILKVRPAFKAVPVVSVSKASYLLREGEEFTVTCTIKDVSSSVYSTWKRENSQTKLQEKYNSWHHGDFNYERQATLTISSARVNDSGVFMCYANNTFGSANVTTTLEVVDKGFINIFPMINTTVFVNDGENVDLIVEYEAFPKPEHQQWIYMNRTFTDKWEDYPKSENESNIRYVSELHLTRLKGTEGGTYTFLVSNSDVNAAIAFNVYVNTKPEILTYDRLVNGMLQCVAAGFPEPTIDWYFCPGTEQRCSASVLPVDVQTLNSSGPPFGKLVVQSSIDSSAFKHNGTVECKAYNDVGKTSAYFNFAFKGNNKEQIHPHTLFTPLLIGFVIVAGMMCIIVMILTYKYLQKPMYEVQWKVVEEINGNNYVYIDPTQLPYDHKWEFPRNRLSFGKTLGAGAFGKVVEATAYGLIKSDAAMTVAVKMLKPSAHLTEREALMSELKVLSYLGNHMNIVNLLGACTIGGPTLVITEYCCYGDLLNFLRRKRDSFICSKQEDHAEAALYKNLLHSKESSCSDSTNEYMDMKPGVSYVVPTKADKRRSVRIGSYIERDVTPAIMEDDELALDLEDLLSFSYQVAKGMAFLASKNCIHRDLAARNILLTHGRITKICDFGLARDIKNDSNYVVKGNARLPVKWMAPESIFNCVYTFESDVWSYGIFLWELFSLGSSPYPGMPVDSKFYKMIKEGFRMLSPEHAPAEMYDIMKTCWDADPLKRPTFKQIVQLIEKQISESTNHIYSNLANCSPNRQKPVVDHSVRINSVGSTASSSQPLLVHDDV

LCK (human) = LCK (human) (UniProt P06239)
MAP2K3 (human) = MAP2K3 (human) (UniProt P46734)
Sequence of MAP2K3 (human) (P46734 whole entry, looked up): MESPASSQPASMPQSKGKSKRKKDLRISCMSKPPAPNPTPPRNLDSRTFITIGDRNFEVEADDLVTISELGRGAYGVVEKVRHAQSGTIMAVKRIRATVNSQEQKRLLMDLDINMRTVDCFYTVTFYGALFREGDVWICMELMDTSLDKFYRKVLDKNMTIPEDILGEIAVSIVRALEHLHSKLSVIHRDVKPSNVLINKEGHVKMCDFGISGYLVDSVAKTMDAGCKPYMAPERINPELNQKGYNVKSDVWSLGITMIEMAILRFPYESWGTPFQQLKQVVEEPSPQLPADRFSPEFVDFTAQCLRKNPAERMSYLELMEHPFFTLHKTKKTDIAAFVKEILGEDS

MAP2K4 (human) = MAP2K4 (human) (UniProt P45985)
MAP3K3 (human) = MAP3K3 (human) (UniProt Q99759)
MAPK1 (human) = MAPK1 (human) (UniProt P28482)
MARK1 (human) = MARK1 (human) (UniProt Q9P0L2)
MAST1 (human) = MAST1 (human) (UniProt Q9Y2H9)
MINK1 (human) = MINK1 (human) (UniProt Q8N4C8)
MST4 (human) = MST4 (human) (UniProt Q9P289)
MYO3B (human) = MYO3B (human) (UniProt Q8WXR4)
PHKG1 (human) = PHKG1 (human) (UniProt Q16816)
PIK3CD (human) = PIK3CD (human) (UniProt O00329)
PRKAA2 (human) = PRKAA2 (human) (UniProt P54646)
PRKX (human) = PRKX (human) (UniProt P51817)
Sequence of PRKX (human) (P51817 whole entry, looked up): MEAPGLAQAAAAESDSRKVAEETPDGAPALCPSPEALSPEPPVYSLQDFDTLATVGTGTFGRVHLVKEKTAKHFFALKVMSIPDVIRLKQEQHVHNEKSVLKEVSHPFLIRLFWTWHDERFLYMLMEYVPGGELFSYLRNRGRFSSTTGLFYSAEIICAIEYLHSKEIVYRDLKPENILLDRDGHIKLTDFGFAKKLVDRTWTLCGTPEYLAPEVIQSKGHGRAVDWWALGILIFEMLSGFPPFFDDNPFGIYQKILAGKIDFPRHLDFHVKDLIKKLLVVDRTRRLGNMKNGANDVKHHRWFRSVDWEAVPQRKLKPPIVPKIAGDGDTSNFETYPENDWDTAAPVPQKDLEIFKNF

RIOK3 (human) = RIOK3 (human) (UniProt O14730)
RIPK1 (human) = RIPK1 (human) (UniProt Q13546)
Sequence of RIPK1 (human) (Q13546 whole entry, looked up): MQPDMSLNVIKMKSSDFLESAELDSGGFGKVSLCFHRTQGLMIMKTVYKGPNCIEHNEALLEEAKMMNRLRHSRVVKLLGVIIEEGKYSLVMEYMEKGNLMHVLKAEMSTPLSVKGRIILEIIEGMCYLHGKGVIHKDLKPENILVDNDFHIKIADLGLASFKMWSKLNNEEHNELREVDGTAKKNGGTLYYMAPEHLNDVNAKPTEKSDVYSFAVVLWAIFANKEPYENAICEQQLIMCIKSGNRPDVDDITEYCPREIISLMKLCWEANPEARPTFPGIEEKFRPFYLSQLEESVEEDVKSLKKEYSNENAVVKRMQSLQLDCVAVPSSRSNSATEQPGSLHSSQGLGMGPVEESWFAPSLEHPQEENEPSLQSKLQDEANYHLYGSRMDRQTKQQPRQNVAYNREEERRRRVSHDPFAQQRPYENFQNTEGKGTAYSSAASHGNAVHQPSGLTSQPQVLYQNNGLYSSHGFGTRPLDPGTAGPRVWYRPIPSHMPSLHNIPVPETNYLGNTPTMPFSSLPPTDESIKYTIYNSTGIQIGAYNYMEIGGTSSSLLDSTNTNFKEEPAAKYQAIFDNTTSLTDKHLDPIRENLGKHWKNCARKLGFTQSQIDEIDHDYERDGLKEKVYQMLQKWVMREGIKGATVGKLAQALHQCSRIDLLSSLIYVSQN

RPS6KB1 (human) = RPS6KB1 (human) (UniProt P23443)
Sequence of RPS6KB1 (human) (P23443 whole entry, looked up): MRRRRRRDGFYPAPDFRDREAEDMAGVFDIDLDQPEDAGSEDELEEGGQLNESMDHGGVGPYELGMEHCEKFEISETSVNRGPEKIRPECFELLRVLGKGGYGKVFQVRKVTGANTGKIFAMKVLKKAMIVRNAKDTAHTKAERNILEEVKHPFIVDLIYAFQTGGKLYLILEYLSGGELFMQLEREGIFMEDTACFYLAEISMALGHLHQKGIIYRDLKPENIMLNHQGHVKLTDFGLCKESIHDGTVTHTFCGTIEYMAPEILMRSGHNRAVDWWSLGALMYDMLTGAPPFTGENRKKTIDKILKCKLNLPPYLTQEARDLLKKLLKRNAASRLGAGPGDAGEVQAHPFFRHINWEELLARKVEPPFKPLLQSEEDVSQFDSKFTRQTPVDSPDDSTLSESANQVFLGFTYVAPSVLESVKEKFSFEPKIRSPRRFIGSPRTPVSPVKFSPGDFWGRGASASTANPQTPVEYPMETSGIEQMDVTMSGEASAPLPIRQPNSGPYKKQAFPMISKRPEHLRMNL

STK17A (human) = STK17A (human) (UniProt Q9UEE5)
STK38L (human) = STK38L (human) (UniProt Q9Y2H1)

SMILES	kinase still bound, per cent of control (ACVR2A (human))	kinase still bound, per cent of control (ADCK4 (human))	kinase still bound, per cent of control (AURKA (human))	kinase still bound, per cent of control (BTK (human))	kinase still bound, per cent of control (CAMK2B (human))	kinase still bound, per cent of control (CAMK2G (human))	kinase still bound, per cent of control (CAMK4 (human))	kinase still bound, per cent of control (CDK15 (human))	kinase still bound, per cent of control (CDK4 CCND3 (human))	kinase still bound, per cent of control (CDKL3 (human))	kinase still bound, per cent of control (DAPK3 (human))	kinase still bound, per cent of control (DCLK1 (human))	kinase still bound, per cent of control (EIF2AK2 (human))	kinase still bound, per cent of control (EPHA1 (human))	kinase still bound, per cent of control (FES (human))	kinase still bound, per cent of control (FGFR2 (human))	kinase still bound, per cent of control (GAK (human))	kinase still bound, per cent of control (GRK7 (human))	kinase still bound, per cent of control (GSK3A (human))	kinase still bound, per cent of control [1]	further results
COc1cc2ncnc(-n3nc(-c4ccccn4)nc3N)c2cc1OC	66%	14%	15%	51%	37%	56%	100%	88%	60%	5.3%	4.6%	36%	21%	14%	99%	76%	2.6%	11%	73%	26%	kinase still bound, per cent of control (KIT (human)): 10%; kinase still bound, per cent of control (LCK (human)): 5.2%; kinase still bound, per cent of control (MAP2K3 (human)): 27%; kinase still bound, per cent of control (MAP2K4 (human)): 3.8%; kinase still bound, per cent of control (MAP3K3 (human)): 48%; kinase still bound, per cent of control (MAPK1 (human)): 56%; kinase still bound, per cent of control (MARK1 (human)): 86%; kinase still bound, per cent of control (MAST1 (human)): 73%; kinase still bound, per cent of control (MINK1 (human)): 40%; kinase still bound, per cent of control (MST4 (human)): 68%; kinase still bound, per cent of control (MYO3B (human)): 100%; kinase still bound, per cent of control (PHKG1 (human)): 55%; kinase still bound, per cent of control (PIK3CD (human)): 5%; kinase still bound, per cent of control (PRKAA2 (human)): 27%; kinase still bound, per cent of control (PRKX (human)): 79%; kinase still bound, per cent of control (RIOK3 (human)): 32%; kinase still bound, per cent of control (RIPK1 (human)): 86%; kinase still bound, per cent of control (RPS6KB1 (human)): 2.6%; kinase still bound, per cent of control (STK17A (human)): 1.6%; kinase still bound, per cent of control (STK38L (human)): 69%
COc1cc(C(=O)N2CCC(N3CCN(C)CC3)CC2)ccc1Nc1ncc2c(n1)N(C)c1ccccc1C(=O)N2C	100%	94%	1.2%	100%	62%	47%	79%	100%	100%	83%	67%	4.2%	84%	100%	84%	95%	16%	100%	100%	70%	kinase still bound, per cent of control (KIT (human)): 100%; kinase still bound, per cent of control (LCK (human)): 100%; kinase still bound, per cent of control (MAP2K3 (human)): 75%; kinase still bound, per cent of control (MAP2K4 (human)): 100%; kinase still bound, per cent of control (MAP3K3 (human)): 97%; kinase still bound, per cent of control (MAPK1 (human)): 85%; kinase still bound, per cent of control (MARK1 (human)): 87%; kinase still bound, per cent of control (MAST1 (human)): 100%; kinase still bound, per cent of control (MINK1 (human)): 77%; kinase still bound, per cent of control (MST4 (human)): 95%; kinase still bound, per cent of control (MYO3B (human)): 83%; kinase still bound, per cent of control (PHKG1 (human)): 54%; kinase still bound, per cent of control (PIK3CD (human)): 62%; kinase still bound, per cent of control (PRKAA2 (human)): 66%; kinase still bound, per cent of control (PRKX (human)): 99%; kinase still bound, per cent of control (RIOK3 (human)): 85%; kinase still bound, per cent of control (RIPK1 (human)): 99%; kinase still bound, per cent of control (RPS6KB1 (human)): 100%; kinase still bound, per cent of control (STK17A (human)): 100%; kinase still bound, per cent of control (STK38L (human)): 100%
CN(C)C/C=C/C(=O)Nc1ccc(C(=O)Nc2cccc(Nc3nccc(-c4cccnc4)n3)c2)cc1	53%	98%	11%	71%	60%	76%	100%	100%	100%	20%	62%	98%	50%	76%	99%	86%	3.6%	98%	26%	8.4%	kinase still bound, per cent of control (KIT (human)): 3.8%; kinase still bound, per cent of control (LCK (human)): 100%; kinase still bound, per cent of control (MAP2K3 (human)): 24%; kinase still bound, per cent of control (MAP2K4 (human)): 9.8%; kinase still bound, per cent of control (MAP3K3 (human)): 93%; kinase still bound, per cent of control (MAPK1 (human)): 77%; kinase still bound, per cent of control (MARK1 (human)): 70%; kinase still bound, per cent of control (MAST1 (human)): 100%; kinase still bound, per cent of control (MINK1 (human)): 50%; kinase still bound, per cent of control (MST4 (human)): 100%; kinase still bound, per cent of control (MYO3B (human)): 100%; kinase still bound, per cent of control (PHKG1 (human)): 96%; kinase still bound, per cent of control (PIK3CD (human)): 91%; kinase still bound, per cent of control (PRKAA2 (human)): 95%; kinase still bound, per cent of control (PRKX (human)): 100%; kinase still bound, per cent of control (RIOK3 (human)): 13%; kinase still bound, per cent of control (RIPK1 (human)): 34%; kinase still bound, per cent of control (RPS6KB1 (human)): 100%; kinase still bound, per cent of control (STK17A (human)): 6.4%; kinase still bound, per cent of control (STK38L (human)): 100%

Reference: the kinase profiling compilation of Christmann-Franck et al. (2016)
